# Test results as given in patent US8299107B2, “Triazole compounds that modulate HSP90 activity” (Synta Pharmaceuticals Corporation, priority 2007, dated 2012).
# System: Her2
# Assay: Degradation of Her2 in BT-474 cells, Western blot (Method 1)
# Type: cell-based, human
# Conditions: 0.5 μM, overnight, positive control
# Method: Human high-Her2 breast carcinoma BT474 (HTB-20), SK-BR-3 (HTB-30) and MCF-7 breast carcinoma (HTB-22) from American Type Culture Collection, VA, USA were grown in Dulbecco's modified Eagle's medium with 4 mM L-glutamine and antibiotics (100 IU/ml penicillin and 100 ug/ml streptomycine; GibcoBRL). To obtain exponential cell growth; cells were trypsinized, counted and seeded at a cell density of 0.5×10^6 cells/ml regularly, every 3 days. All experiments were performed on day 1 after cell passage.
# BT-474 cells are treated with 0.5 μM, 2 μM, or 5 μM of 17AAG (a positive control) or 0.5 μM, 2 μM, or 5 μM of a compound of the invention overnight in DMEM medium. After treatment, each cytoplasmic sample is prepared from 1×10^6 cells by incubation of cell lysis buffer (#9803, cell Signaling Technology) on ice for 10 minutes. The resulting supernatant used as the cytosol fractions is dissolved with sample buffer for SDS-PAGE and run on a SDS-PAGE gel, blotted onto a nitrocellulose membrane by using semi-dry transfer. Non-specific binding to nitrocellulose is blocked with 5% skim milk in TBS with 0.5% Tween at room temperature for 1 hour, then probed with anti-Her2/ErB2 mAb (rabbit IgG, #2242, Cell Signaling) and anti-Tubulin (T9026, Sigma) as housekeeping control protein. […]
smiles,measurement,value
"C=CCNC1=C2C[C@@H](C)C[C@H](OC)[C@H](O)[C@@H](C)/C=C(\C)[C@H](OC(N)=O)[C@@H](OC)/C=C\C=C(/C)C(=O)NC(=CC1=O)C2=O [Compound 17AAG, 17-allylamino-17-demethoxygeldanamycin]",degradation of Her2,partial degradation of Her2
